Measured values published in paper PMC10791743, “Selective CK1α degraders exert antiproliferative activity against a broad range of human cancer cell lines” (Nature Communications, 2024).
Where “and” joins values, the source holds several entries; their conditions need not be identical. Equal values may be shown once.

Columns and labels:
[1] = system: SW872; experiment: cells; design: Oncolines panel cell viability, ATPlite 1Step luminescence, duplicate 9-point dose response, IC50; details: Homo sapiens, SW872; 72 h viability; read-out: SJ3149
Experimental: (§1) Cell viability assays were performed as previously described. In brief, cells were seeded in a 384-well plate at an optimized density. The starting cell number was determined after 24 h incubation by adding ATPlite 1Step (Perkin Elmer, Groningen, the Netherlands) to each well and recording luminescence on an Envision multimode reader (Perkin Elmer, Waltham, MA). After the addition of a duplicate 9-point dilution series of SJ3149, cells were incubated for another 72 h, followed by cell counting using ATPlite 1Step. The dilution series ranged from 3.2 to 31,600 nM or was diluted 100-fold for the most sensitive cell lines to ideally capture the complete dose–response curve. Percentage viability was determined at each compound concentration by relating the observed signal to a vehicle-treated control, that is, medium containing 0.4% (v/v) DMSO. Compound IC50 values were calculated by fitting a 4-parameter logistic curve to the percentage viability values using IDBS XLfit5 (IDBS, Guildford, UK). The IC50 was limited to the maximum tested compound concentration when the IC50 exceeded the maximum tested concentration. […] To evaluate the compound’s effect and potential therapeutic application across a diverse range of human cancers, we profiled SJ3149 in Oncolines® panel consisting of 115 human cancer cell lines, of which 86 were solid tumor and 29 hematologic cell lines, including MOLM-13. Effect on cell viability was monitored using ATPLite™ (Perkin Elmer), which measures intracellular ATP content as an indirect readout of cell number, like CellTiter Glo.

[2] = system: NCI-H82; experiment: cells; design: Oncolines panel cell viability, ATPlite 1Step luminescence, duplicate 9-point dose response, IC50; details: Homo sapiens, NCI-H82; 72 h viability; read-out: SJ3149
Experimental: as §1

[3] = system: DU 145; experiment: cells; design: Oncolines panel cell viability, ATPlite 1Step luminescence, duplicate 9-point dose response, IC50; details: Homo sapiens, DU-145; 72 h viability; read-out: SJ3149
Experimental: as §1

[4] = system: U-87 MG; experiment: cells; design: Oncolines panel cell viability, ATPlite 1Step luminescence, duplicate 9-point dose response, IC50; details: Homo sapiens, U-87 MG; 72 h viability; read-out: SJ3149
Experimental: as §1

[5] = system: 786-O; experiment: cells; design: Oncolines panel cell viability, ATPlite 1Step luminescence, duplicate 9-point dose response, IC50; details: Homo sapiens, 786-0; 72 h viability; read-out: SJ3149
Experimental: as §1

[6] = system: NB4; experiment: cells; design: Oncolines panel cell viability, ATPlite 1Step luminescence, duplicate 9-point dose response, IC50; details: Homo sapiens, NB-4; 72 h viability; read-out: SJ3149
Experimental: as §1

[7] = system: MOLM-13 cells overexpressing FLAG-tagged wild type CK1α; experiment: CK1α mutant rescue, CTG viability, FLAG-CK1α wild type MOLM-13; format: cell-based, human
Experimental: To evaluate the contribution of the CK1α degradation in SJ3149-mediated cytotoxicity, we utilized the degradation-resistant mutant CK1α G40N[41]. MOLM-13 cells were transduced with lentivirus to overexpress FLAG-tagged wild type CK1α or the G40N mutant, which removes the essential glycine in the CK1α degron G-loop.
The media was changed after cells rested in the 37 °C incubator overnight. […] As described above in the Molecular Glue Library Screening section, transduced MOLM-13 cells were seeded in 384-well plates at 1250 cells per well and allowed to rest overnight. 30 nl of CK1α degraders of interest were deposited on the cells using an Echo 650 acoustic liquid handler […]. […] This was done twice for a total of six technical replicates.

[8] = system: MOLM-13 cells; experiment: Lenalidomide competition assay (40 μM lenalidomide), MOLM-13 viability; format: cell-based, human; details: lenalidomide 40 μM
Experimental: Having identified SJ7095 as a compound with a potent antiproliferative effect in MOLM-13 cells, we next examined whether the observed effect was CRBN-dependent. […] In an orthogonal approach, we tested SJ7095 in wild-type and CRBN-knockout MOLM-13 cells in a cell viability assay (Supplementary Fig. 1b).
MOLM-13 cells were plated in Corning 8804BC white 384-well assay plates at the appropriate cell number per well and incubated overnight at 37 °C in a humidified 5 % CO2 incubator. Compounds were transferred to the assay plate from a dose-response plate using a Labcyte Echo 650 Acoustic Liquid Handler (Beckman Coulter , USA). Cytotoxicity was determined following 72 h of incubation using Promega’s CellTiter-Glo reagent according to the manufacturer’s recommendation.
Luminescence was measured on the Envision plate reader (PerkinElmer, USA). Raw luminescence relative light unit (RLU) values for each compound at each concentration were normalized to obtain % activity using the following equation (1): 100 × [(mean(negctrl) – compound)/(mean (negctrl) – mean (posctrl))]. The % activity was converted to % viability using the following equation (2):
(100 – % activity), and then pooled from replicate experiments prior to fitting. Here, negctrl and posctrl refer to the negative (DMSO) and positive controls (staurosporine) on each plate. […]

Row | SMILES | IC50 [1] [µM] | IC50 [2] [µM] | IC50 [3] [µM] | IC50 [4] [µM] | IC50 [5] [µM] | IC50 [6] [µM] | cell viability percentages, CK1a ([7]; Concentration 0.000542) | cell viability percentages, CK1a ([7]; Concentration 0.001625) | cell viability percentages, CK1a ([7]; Concentration 0.004875) | cell viability percentages, CK1a ([7]; Concentration 0.043872) | cell viability percentages, CK1a ([7]; Concentration 0.131617) | cell viability percentages, CK1a ([7]; Concentration 0.394851) | cell viability percentages, CK1a ([7]; Concentration 1.18455) | cell viability percentages, CK1a ([7]; Concentration 3.55366) | Bottom (line fit, sigmoidal 4PL) of cell viability, CK1a ([7]; FLAG-CK1a WT cells) [%] | Top (line fit, sigmoidal 4PL) of cell viability, CK1a ([7]; FLAG-CK1a WT cells) [%] | IC50 ([7]; Homo sapiens, MOLM-13, read-out: IC50 (line fit, sigmoidal 4PL) of cell viability, CK1a) [µM] | Antiproliferative effect in presence of excess lenalidomide [8]
1 | O=C1CCC(N2Cc3cc(Nc4noc5ccccc45)ccc3C2=O)C(=O)N1 (stereo not drawn) [SJ3149] | > 31.6 | > 31.6 | > 31.6 | > 31.6 | > 31.6 | > 31.6 | 105.205% and 58.6715% and 64.466% and 67.6161% and 69.6541% and 82.1036% | 74.2908% and 52.9731% and 67.1789% and 57.7783% and 62.7672% and 68.828% | 36.1307% and 42.7391% and 40.1045% and 39.1839% and 40.0413% and 49.9053% | 2.187% and 2.943% and 4.508% and 8.798% and 6.315% and 7.182% | 3.39% and 3.498% and 5.044% and 4.581% and 3.4782% and 4.037% | 2.449% and 1.756% and 2.718% and 2.322% and 1.473% and 1.9709% | 1.709% and 1.723% and 2.012% and 1.573% and 1.103% and 1.1327% | 1.548% and 0.8978% and 0.8701% and 0.5259% and 0.4164% and 0.8076% | 1.012 | 80.73 | 0.00526 | 
2 | O=C1CCC(N2Cc3c(CNC(=O)c4ccc(F)cc4)cccc3C2=O)C(=O)N1 (stereo not drawn) [SJ7095] |  |  |  |  |  |  |  |  |  |  |  |  |  |  |  |  |  | abrogating the antiproliferative effects
